The text below walks through data of PubChem BioAssay AID288 (DTP/NCI, 2004).

The assay concerns BDF1 mice, M5076 sarcoma s.c., survival/tumor T/C. As to the kind of experiment: NCI In Vivo Anticancer Drug Screen. Data for tumor model Sarcoma M5076 (subcutaneous) in B6D2F1 (BDF1) mice. The procedure:
The antitumor activity of compounds was measured in mice bearing transplantable tumors. Survival or tumor size were measured and the results are expressed as the measurement made in the treated group (T) divided by the measurement made in the vehicle treated control group (C). The tumor model used in this assay is Sarcoma M5076 (subcutaneous) in B6D2F1 (BDF1) mice

Setting [1] is: endpoint: median survival time, dose: 50.0 mg/kg/injection, schedule: Q01DX009 (ip), vehicle: saline with Tween-80, higher = longer survival.
[2] abbreviates: endpoint: median survival time, dose: 100.0 mg/kg/injection, schedule: Q01DX009 (ip), vehicle: saline with Tween-80, higher = longer survival.
Where [3] appears, read: endpoint: median survival time, dose: 200.0 mg/kg/injection, schedule: Q01DX009 (ip), vehicle: saline with Tween-80, higher = longer survival.
[4] abbreviates: endpoint: median tumor weight (est.), dose: 50.0 mg/kg/injection, schedule: Q01DX009 (ip), vehicle: saline with Tween-80, higher = larger tumour.
The mark [5] stands for this setting: endpoint: median tumor weight (est.), dose: 100.0 mg/kg/injection, schedule: Q01DX009 (ip), vehicle: saline with Tween-80, higher = larger tumour.
Where [6] appears, read: endpoint: median tumor weight (est.), dose: 200.0 mg/kg/injection, schedule: Q01DX009 (ip), vehicle: saline with Tween-80, higher = larger tumour.

“And” between values parts separate entries of the source, which are not always exact repeats. Identical values can stand only once. Results filed as inconclusive are left out. Numbered stars: 1 amine (or outer) side, 2 acyl side, 3 side chain; on linkers, the order of the positions; unused ones are H or OH. Bridge positions count the residues as written; N and C are the ends. Square brackets hold non-standard residues; d marks the D form. Peptide text beside a SMILES is read from it. I, II: the chains in the order shown. Actinocin(9to1) = Cc1c2oc3c(C)ccc(C(=O)[*:1])c3nc-2c(C(=O)[*:2])c(N)c1=O; aThr = C[C@H](O)[C@H](N)C(=O)O; NMeV = CN[C@H](C(=O)O)C(C)C; Sar = CNCC(=O)O

Turning to `Cc1cc(-c2ccc(NC(=O)Nc3cccc(F)c3)c(C)c2)ccc1NC(=O)Nc1cccc(F)c1`, the T/C reads like this: under setting [1], 110 % of control; under setting [2], 102 % of control; under setting [3], 104 % of control; under setting [4], 107 % of control; under setting [5], 84 % of control; under setting [6], 70 % of control.

As for `N[C@@H](Cc1ccc(N(CCCl)CCCl)cc1)C(=O)O`, the T/C is, setting by setting: (endpoint: median survival time, dose: 0.75 mg/kg/injection, schedule: Q04DX006 (ip), vehicle: saline, higher = longer survival) 105 % of control; (endpoint: median survival time, dose: 1.5 mg/kg/injection, schedule: Q04DX006 (ip), vehicle: saline, higher = longer survival) 111 % of control; (endpoint: median survival time, dose: 3.0 mg/kg/injection, schedule: Q02DX033 (ip), vehicle: saline, higher = longer survival) 230 % of control; (endpoint: median survival time, dose: 3.0 mg/kg/injection, schedule: Q04DX006 (ip), vehicle: saline, higher = longer survival) 121 % of control; (endpoint: median survival time, dose: 3.24 mg/kg/injection, schedule: Q01DX001 (ip), vehicle: saline, higher = longer survival) 154 % of control and 155 % of control.

For the molecule `COc1ccc(Cl)cc1NC(=O)NNC(=O)C(=O)Nc1ccc(F)cc1`, the T/C is, setting by setting: under setting [1], 106 % of control; under setting [2], 106 % of control; under setting [3], 113 % of control; under setting [4], 87 % of control; under setting [6], 115 % of control.

For the molecule `CC1(C)OCC(CO)(Nc2nc(N3CC3)nc(N3CC3)n2)CO1`, the T/C runs as follows: (endpoint: median survival time, dose: 0.78 mg/kg/injection, schedule: Q02DX011 (ip), vehicle: saline, higher = longer survival) 98 % of control; (endpoint: median survival time, dose: 1.56 mg/kg/injection, schedule: Q02DX011 (ip), vehicle: saline, higher = longer survival) 110 % of control; (endpoint: median survival time, dose: 3.12 mg/kg/injection, schedule: Q02DX011 (ip), vehicle: saline, higher = longer survival) 164 % of control.

For the molecule `Cc1ccc(S(=O)(=O)N/N=C/C(Br)=C(/Br)C(=O)O)cc1`, the T/C is, setting by setting: (endpoint: median survival time, dose: 0.62 mg/kg/injection, schedule: Q04DX003 (ip), vehicle: saline, higher = longer survival) 99 % of control; (endpoint: median survival time, dose: 1.25 mg/kg/injection, schedule: Q04DX003 (ip), vehicle: saline, higher = longer survival) 101 % of control; (endpoint: median survival time, dose: 2.5 mg/kg/injection, schedule: Q04DX003 (ip), vehicle: saline, higher = longer survival) 99 % of control and 96 % of control; (endpoint: median survival time, dose: 5.0 mg/kg/injection, schedule: Q04DX003 (ip), vehicle: saline, higher = longer survival) 109 % of control and 92 % of control; (endpoint: median survival time, dose: 7.5 mg/kg/injection, schedule: Q04DX003 (ip), vehicle: saline, higher = longer survival) 83 % of control; (endpoint: median survival time, dose: 11.3 mg/kg/injection, schedule: Q04DX003 (ip), vehicle: saline, higher = longer survival) 88 % of control.

With `COc1cccc2c1C(=O)c1c(O)c3c(c(O)c1C2=O)C[C@@](O)(C(=O)CO)C[C@@H]3OC1CC(N)C(O)C(C)O1` (some centres undefined), the T/C runs as follows: (endpoint: mean tumor weight, dose: 1.0 mg/kg/injection, schedule: Q02DX011 (ip), vehicle: saline, higher = larger tumour) 81 % of control; (endpoint: mean tumor weight, dose: 2.0 mg/kg/injection, schedule: Q02DX011 (ip), vehicle: saline, higher = larger tumour) 39 % of control; (endpoint: median survival time, dose: 0.25 mg/kg/injection, schedule: Q02DX009 (iv), vehicle: saline, higher = longer survival) 97 % of control; (endpoint: median survival time, dose: 0.5 mg/kg/injection, schedule: Q02DX009 (iv), vehicle: saline, higher = longer survival) 94 % of control; (endpoint: median survival time, dose: 0.5 mg/kg/injection, schedule: Q04DX009 (ip), vehicle: saline, higher = longer survival) 114 % of control; (endpoint: median survival time, dose: 1.0 mg/kg/injection, schedule: Q02DX009 (iv), vehicle: saline, higher = longer survival) 100 % of control. Moreover, the T/C is 100 % of control (endpoint: median survival time, dose: 1.0 mg/kg/injection, schedule: Q02DX011 (ip), vehicle: water, higher = longer survival); 111 % of control (endpoint: median survival time, dose: 1.0 mg/kg/injection, schedule: Q04DX009 (ip), vehicle: saline, higher = longer survival); 100 % of control (endpoint: median survival time, dose: 1.3 mg/kg/injection, schedule: Q04DX004 (iv), vehicle: saline, higher = longer survival); 97 % of control (endpoint: median survival time, dose: 2.0 mg/kg/injection, schedule: Q02DX009 (iv), vehicle: saline, higher = longer survival); 94 % of control (endpoint: median survival time, dose: 2.0 mg/kg/injection, schedule: Q02DX011 (ip), vehicle: water, higher = longer survival); 111 % of control (endpoint: median survival time, dose: 2.0 mg/kg/injection, schedule: Q04DX009 (ip), vehicle: saline, higher = longer survival). For the same molecule, the T/C was 90 % of control (endpoint: median survival time, dose: 2.16 mg/kg/injection, schedule: Q04DX004 (ip), vehicle: saline, higher = longer survival); 112 % of control (endpoint: median survival time, dose: 2.16 mg/kg/injection, schedule: Q04DX004 (iv), vehicle: saline, higher = longer survival); 96 % of control (endpoint: median survival time, dose: 3.0 mg/kg/injection, schedule: Q02DX011 (ip), vehicle: water, higher = longer survival); 108 % of control (endpoint: median survival time, dose: 3.0 mg/kg/injection, schedule: Q04DX003 (iv), vehicle: saline, higher = longer survival); 103 % of control (endpoint: median survival time, dose: 3.6 mg/kg/injection, schedule: Q04DX004 (ip), vehicle: saline, higher = longer survival); 93 % of control (endpoint: median survival time, dose: 3.6 mg/kg/injection, schedule: Q04DX004 (iv), vehicle: saline, higher = longer survival). Further, the T/C is 38 % of control (endpoint: median survival time, dose: 4.0 mg/kg/injection, schedule: Q02DX011 (ip), vehicle: water, higher = longer survival); 108 % of control (endpoint: median survival time, dose: 4.0 mg/kg/injection, schedule: Q04DX009 (ip), vehicle: saline, higher = longer survival); 124 % of control (endpoint: median survival time, dose: 4.5 mg/kg/injection, schedule: Q04DX003 (iv), vehicle: saline, higher = longer survival); 76 % of control (endpoint: median tumor weight (est.), dose: 1.0 mg/kg/injection, schedule: Q02DX011 (ip), vehicle: saline, higher = larger tumour); 26 % of control (endpoint: median tumor weight (est.), dose: 2.0 mg/kg/injection, schedule: Q02DX011 (ip), vehicle: saline, higher = larger tumour).

With `COc1ccc(Cl)[n+]([O-])n1`, the T/C (endpoint: median survival time, dose: 50.0 mg/kg/injection, schedule: Q04DX003 (ip), vehicle: Klucel (hydroxypropylcellulose) (HPC), higher = longer survival) was 100 % of control and the T/C (endpoint: median survival time, dose: 100.0 mg/kg/injection, schedule: Q04DX003 (ip), vehicle: Klucel (hydroxypropylcellulose) (HPC), higher = longer survival) is 100 % of control.

Consider `c1cnc2c(OCCOCCOCCOCCOc3cccc4cccnc34)cccc2c1`, for which the T/C reads like this: under setting [1], 98 % of control; under setting [2], 122 % of control; under setting [3], 121 % of control; under setting [4], 73 % of control; under setting [5], 58 % of control; under setting [6], 49 % of control.

In the case of `C=C1C(O)C2OC3(CCC(/C=C/C(C)C4CC5(C)SC5C5(OC(CC(C)(O)C(=O)O)CCC5O)O4)O3)CCC2OC1C(O)CC(C)C1OC2(CCCCO2)CCC1C` (centres undefined), the T/C is, setting by setting: (endpoint: median survival time, dose: 1.25 micrograms/kg/injection, schedule: Q01DX009 (ip), vehicle: saline + alcohol, higher = longer survival) 101 % of control; (endpoint: median survival time, dose: 2.5 micrograms/kg/injection, schedule: Q01DX009 (ip), vehicle: saline + alcohol, higher = longer survival) 96 % of control; (endpoint: median survival time, dose: 5.0 micrograms/kg/injection, schedule: Q01DX009 (ip), vehicle: saline + alcohol, higher = longer survival) 108 % of control; (endpoint: median survival time, dose: 10.0 micrograms/kg/injection, schedule: Q01DX009 (ip), vehicle: saline + alcohol, higher = longer survival) 96 % of control; (endpoint: median tumor weight (est.), dose: 1.25 micrograms/kg/injection, schedule: Q01DX009 (ip), vehicle: saline + alcohol, higher = larger tumour) 107 % of control; (endpoint: median tumor weight (est.), dose: 2.5 micrograms/kg/injection, schedule: Q01DX009 (ip), vehicle: saline + alcohol, higher = larger tumour) 77 % of control. Further, the T/C (endpoint: median tumor weight (est.), dose: 5.0 micrograms/kg/injection, schedule: Q01DX009 (ip), vehicle: saline + alcohol, higher = larger tumour) was 92 % of control.

Take `Cc1c2oc3c(C)ccc(C(=O)N[C@@H]4C(=O)N[C@H](C(C)C)C(=O)N5CCC[C@H]5C(=O)N(C)CC(=O)N(C)[C@@H](C(C)C)C(=O)O[C@H]4C)c3nc-2c(C(=O)N[C@@H]2C(=O)N[C@H](C(C)C)C(=O)N3CCC[C@H]3C(=O)N(C)CC(=O)N(C)[C@@H](C(C)C)C(=O)O[C@H]2C)c(N)c1=O` (I: [aThr][dV]P[Sar][NMeV] / II: [aThr][dV]P[Sar][NMeV]; ester I:1-I:C, II:1-II:C; linker I:N-II:N via Actinocin(9to1)): the T/C was 102 % of control (endpoint: median survival time, dose: 0.01 mg/kg/injection, schedule: Q04DX006 (ip), vehicle: saline, higher = longer survival); 95 % of control (endpoint: median survival time, dose: 0.03 mg/kg/injection, schedule: Q04DX006 (ip), vehicle: saline, higher = longer survival); 102 % of control (endpoint: median survival time, dose: 0.06 mg/kg/injection, schedule: Q04DX006 (ip), vehicle: saline, higher = longer survival); 102 % of control (endpoint: median survival time, dose: 0.12 mg/kg/injection, schedule: Q04DX006 (ip), vehicle: saline, higher = longer survival); 78 % of control (endpoint: median tumor weight (est.), dose: 4.7 micrograms/kg/injection, schedule: Q02DX011 (ip), vehicle: saline, higher = larger tumour); 109 % of control (endpoint: median tumor weight (est.), dose: 7.8 micrograms/kg/injection, schedule: Q02DX011 (ip), vehicle: saline, higher = larger tumour). For the same molecule, the T/C is 66 % of control (endpoint: median tumor weight (est.), dose: 13.0 micrograms/kg/injection, schedule: Q02DX011 (ip), vehicle: saline, higher = larger tumour); 83 % of control (endpoint: median tumor weight (est.), dose: 21.6 micrograms/kg/injection, schedule: Q02DX011 (ip), vehicle: saline, higher = larger tumour); 59 % of control (endpoint: median tumor weight (est.), dose: 36.0 micrograms/kg/injection, schedule: Q02DX011 (ip), vehicle: saline, higher = larger tumour); 78 % of control (endpoint: median tumor weight (est.), dose: 60.0 micrograms/kg/injection, schedule: Q02DX011 (ip), vehicle: saline, higher = larger tumour); 51 % of control (endpoint: median tumor weight (est.), dose: 100.0 micrograms/kg/injection, schedule: Q02DX011 (ip), vehicle: saline, higher = larger tumour).
